{"source": "ChEMBL document CHEMBL6134907", "about": "“Synthesis of 5,9- and 5,8-Diaminoalkoxy Substituted Benzophenanthridinone Analogues as Tyrosyl-DNA Phosphodiesterase 1 Inhibitors and Their Radiosensitizing Activity” (J Med Chem, 2025)", "key": {"[1]": {"assay": "Toxicity in human NCM460 cells assessed as 2GY ionizing radiation radiosensitisation mediated cell killing", "type": "cell-based"}, "HGC-27": {"system": "HGC-27", "assay": "Radiosensitizing activity in human HGC-27 cells assessed as sensitization of 2 GY ionizing radiation induced decrease in cell survival by colony formation assay", "type": "functional, cell-based"}, "HeLa": {"system": "HeLa", "assay": "Radiosensitizing activity in human HeLa cells assessed as sensitization of 2 GY ionizing radiation induced decrease in cell survival by colony formation assay", "type": "functional, cell-based"}, "[2]": {"assay": "Acute toxicity in Kunming mouse assessed as survival at 150 to 600 mg/kg, ip single dose measured after 7 days", "type": "organism-based", "details": "in vivo, 168 h, dose 150-600 mg/kg, time 7 day"}, "[3]": {"assay": "MRT infinity in male Sprague-Dawley rat at 1 mg/kg, iv measured up to 24 hrs by LCMS-MS analysis", "type": "ADME, organism-based", "details": "in vivo"}, "[4]": {"assay": "Half life in male Sprague-Dawley rat at 1 mg/kg, iv measured up to 24 hrs by LCMS-MS analysis", "type": "ADME, organism-based", "details": "in vivo"}, "[5]": {"assay": "Cmax in male Sprague-Dawley rat at 5 mg/kg, IG measured up to 24 hrs by LCMS-MS analysis", "type": "ADME, organism-based", "details": "in vivo, po"}, "[6]": {"assay": "Oral bioavailability in male Sprague-Dawley rat at 5 mg/kg measured up to 24 hrs by LCMS-MS analysis", "type": "ADME, organism-based", "details": "in vivo"}, "HCT-116 [7]": {"system": "HCT-116", "assay": "In vivo radiosensitizing activity in human HCT-116 cells xenografted in BALB/c mouse assessed as sensitization of 1 GY ionizing radiation induced tumor growth inhibition at 10 mg/kg, ip every day for 14 days radiated for every 2 days once", "type": "functional, organism-based", "details": "time 14.0 day"}, "[8]": {"assay": "Toxicity in BALB/c mouse xenografted with human HCT-116 cells assessed as change in kidney weight at 1 to 10 mg/kg, ip every day for 14 days", "type": "organism-based", "details": "in vivo, 336 h, dose 1-10 mg/kg, time 14 day"}, "[9]": {"assay": "Toxicity in BALB/c mouse xenografted with human HCT-116 cells assessed as change in liver weight at 1 to 10 mg/kg, ip every day for 14 days radiated for every 2 days once", "type": "organism-based", "details": "in vivo, 336 h, dose 1-10 mg/kg, time 14 day"}, "[10]": {"assay": "Toxicity in BALB/c mouse xenografted with human HCT-116 cells assessed as change in spleen weight at 1 to 10 mg/kg, ip every day for 14 days radiated for every 2 days once", "type": "organism-based", "details": "in vivo, 336 h, dose 1-10 mg/kg, time 14 day"}, "[11]": {"biological_target": "Tyrosyl-DNA phosphodiesterase 1 (Homo sapiens, UniProt Q9NUW8)", "sequence (Q9NUW8 whole entry)": "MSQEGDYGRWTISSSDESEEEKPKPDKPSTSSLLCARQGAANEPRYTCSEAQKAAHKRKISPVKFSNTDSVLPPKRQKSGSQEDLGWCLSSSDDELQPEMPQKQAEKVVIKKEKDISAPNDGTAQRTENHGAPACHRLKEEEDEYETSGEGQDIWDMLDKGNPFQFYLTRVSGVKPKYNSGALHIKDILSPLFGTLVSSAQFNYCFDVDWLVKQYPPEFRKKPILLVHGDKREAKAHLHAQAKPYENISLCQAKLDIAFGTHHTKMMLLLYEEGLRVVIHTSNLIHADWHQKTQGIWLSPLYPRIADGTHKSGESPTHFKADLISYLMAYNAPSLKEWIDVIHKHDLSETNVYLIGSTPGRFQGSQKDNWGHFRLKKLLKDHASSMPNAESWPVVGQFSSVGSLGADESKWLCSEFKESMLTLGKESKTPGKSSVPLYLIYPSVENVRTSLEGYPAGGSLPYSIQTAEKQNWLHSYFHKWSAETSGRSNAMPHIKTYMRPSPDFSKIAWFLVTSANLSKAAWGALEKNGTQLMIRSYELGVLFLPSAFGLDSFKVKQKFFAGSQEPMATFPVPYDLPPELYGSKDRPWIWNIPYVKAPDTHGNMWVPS", "assay": "Inhibition of TDP1 in human SgTDP1-HCT-116 cells (TDP1 knockout) at 1.11 mM", "type": "cell-based"}, "HCT-116 [12]": {"system": "HCT-116", "assay": "Reduction of XRCC4 expression in wild type human HCT-116 cells assessed as reduction in protein level at 5 to 10 uM measured after 24 hrs by Western blot analysis", "type": "functional, cell-based", "details": "dose 5-10 µM"}, "HCT-116 [13]": {"system": "HCT-116", "assay": "Reduction of XRCC4 expression in wild type human HCT-116 cells assessed as reduction in protein level at 5 to 10 uM radiated with 4 GY ionizing radiation (IR) measured after 24 hrs by Western blot analysis", "type": "functional, cell-based", "details": "dose 5-10 µM"}, "HCT-116 [14]": {"system": "HCT-116", "assay": "Effect on Lig4 expression in wild type human HCT-116 cells assessed as change in protein level at 5 to 10 uM measured after 24 hrs by Western blot analysis", "type": "functional, cell-based", "details": "dose 5-10 µM"}, "HCT-116 [15]": {"system": "HCT-116", "assay": "Effect on Ku70/80 expression in wild type human HCT-116 cells assessed as change in protein level at 5 to 10 uM radiated with 4 GY ionizing radiation (IR) measured after 24 hrs by Western blot analysis", "type": "functional, cell-based", "details": "dose 5-10 µM"}, "HCT-116 [16]": {"system": "HCT-116", "assay": "Effect on Lig4 expression in wild type human HCT-116 cells assessed as change in mRNA level at 5 to 10 uM measured after 24 hrs by qRT-PCR analysis", "type": "functional, cell-based", "details": "dose 5-10 µM"}, "HCT-116 [17]": {"system": "HCT-116", "assay": "Reduction in recruitment of XRCC4 at damage site of human HCT-116 cells at 5 uM measured after 3 hrs by fluorescence colocalization assay", "type": "functional, cell-based"}, "HCT-116 [18]": {"system": "HCT-116", "assay": "Induction of PIG3 transcription level in human HCT-116 cells measured after 24 hrs treated with 4 GY ionizing radiation (IR)", "type": "functional, cell-based", "details": "dose 5-10 µM"}, "HCT-116 [19]": {"system": "HCT-116", "assay": "Upregulation of p53 signaling pathway in human HCT-116 cells at 5 uM measured after 24 hrs by KEGG analysis", "type": "functional, cell-based"}, "HCT-116 [20]": {"system": "HCT-116", "assay": "Induction of PIG3 expression in human HCT-116 cells xenografted BALB/c mouse tumor at 5 to 10 mg/kg, ip every day for 14 days by immunohistochemical analysis", "type": "functional, organism-based", "details": "dose 5-10 mg/kg, time 14.0 day"}, "HCT-116 [21]": {"system": "HCT-116", "assay": "Effect on ROS generation in human HCT-116 cells assessed as increase in intracellular ROS level at 5 to 10 uM measured after 20 mins by ELIASA analysis", "type": "functional, cell-based", "details": "dose 5-10 µM"}, "HCT-116 [22]": {"system": "HCT-116", "assay": "Induction of cell cycle arrest in human HCT-116 cells assessed as accumulation of cells at G0/G1 phase at 5 uM measured after 24 hrs by Propidium iodide (PI) staining based assay (reference value: 69.35%)", "type": "functional"}, "HCT-116 [23]": {"system": "HCT-116", "assay": "Induction of cell cycle arrest in human HCT-116 cells assessed as accumulation of cells at S phase at 10 uM measured after 24 hrs by Propidium iodide (PI) staining based assay (reference value: 13.96%)", "type": "functional"}, "[24]": {"assay": "Induction of 4GY ionizing radiation (IR) induced cell cycle arrest in human HCT-116 cells assessed as accumulation of cells at G0/G1 phase at 5 uM measured after 24 hrs by Propidium iodide (PI) staining based assay (reference value: 65.99%)", "type": "functional"}, "[25]": {"assay": "Induction of 4GY ionizing radiation (IR) induced cell cycle arrest in human HCT-116 cells assessed as accumulation of cells at G2/M phase at 5 uM measured after 24 hrs by Propidium iodide (PI) staining based assay (reference value: 20.51%)", "type": "functional"}, "[26]": {"assay": "Induction of 4GY ionizing radiation (IR) induced cell cycle arrest in human HCT-116 cells assessed as accumulation of cells at G0/G1 phase at 10 uM measured after 24 hrs by Propidium iodide (PI) staining based assay (reference value: 65.99%)", "type": "functional"}, "HCT-116 [27]": {"system": "HCT-116", "assay": "Induction of apoptosis in human HCT-116 cells assessed as viable cells at 5 uM measured after 24 hrs by FITC Annexin V/PI apoptosis detection assay (reference value: 99.71%)", "type": "functional", "details": "read-out: Activity"}, "HCT-116 [28]": {"system": "HCT-116", "assay": "Induction of 4GY ionizing radiation (IR) induced apoptosis in human HCT-116 cells assessed as early apoptotic cells at 5 uM measured after 24 hrs by FITC Annexin V/PI apoptosis detection assay (reference value: 17.50%)", "type": "functional"}, "HCT-116 [29]": {"system": "HCT-116", "assay": "Induction of 4GY ionizing radiation (IR) induced apoptosis in human HCT-116 cells assessed as late apoptotic cells at 5 uM measured after 24 hrs by FITC Annexin V/PI apoptosis detection assay (reference value: 14.32%)", "type": "functional"}, "HCT-116 [30]": {"system": "HCT-116", "assay": "Induction of 4GY ionizing radiation (IR) induced apoptosis in human HCT-116 cells assessed as viable cells at 10 uM measured after 24 hrs by FITC Annexin V/PI apoptosis detection assay (reference value: 66.88%)", "type": "functional", "details": "read-out: Activity"}, "HCT-116 [31]": {"system": "HCT-116", "assay": "Induction of apoptosis in human HCT-116 cells assessed as induction of 4GY ionizing radiation (IR) induced cleaved Caspase-7 at 5 uM measured after 24 hrs by Western blot analysis", "type": "functional, cell-based"}, "HCT-116 [32]": {"system": "HCT-116", "assay": "Induction of apoptosis in human HCT-116 cells assessed as induction of 4GY ionizing radiation (IR) induced cleaved Caspase-3 at 5 uM measured after 24 hrs by Western blot analysis", "type": "functional, cell-based"}}, "note": "Active and inactive are the calls of the source. The calls are words filed in the database; no cut-off is given here."}
{"smiles": "COc1cc2c(=O)n(CCN(C)C)c3c4cc5c(cc4ccc3c2cc1OCCN1CCOCC1)OCO5", "values": [{"measurement": "Activity", "setting": "[1]", "value": "Non-toxic"}, {"measurement": "Activity", "setting": "HGC-27", "value": "inactive"}, {"measurement": "Activity", "setting": "HeLa", "value": "inactive"}, {"measurement": "Activity", "setting": "[2]", "value": "Non-toxic"}, {"measurement": "MRT inf", "setting": "[3]", "value": 3.33, "unit": "h"}, {"measurement": "half-life", "setting": "[4]", "value": 2.86, "unit": "h"}, {"measurement": "Cmax", "setting": "[5]", "value": 70.3, "unit": "ng/mL"}, {"measurement": "bioavailability", "setting": "[6]", "value": 63.1, "unit": "%"}, {"measurement": "TGI", "setting": "HCT-116 [7]", "value": "Active"}, {"measurement": "Activity", "setting": "[8]", "value": "Non-toxic"}, {"measurement": "Activity", "setting": "[9]", "value": "Non-toxic"}, {"measurement": "Activity", "setting": "[10]", "value": "Non-toxic"}, {"measurement": "inhibition", "setting": "[11]", "value": "inactive"}, {"measurement": "Activity", "setting": "HCT-116 [12]", "value": "Active"}, {"measurement": "Activity", "setting": "HCT-116 [13]", "value": "Active"}, {"measurement": "Activity", "setting": "HCT-116 [14]", "value": "inactive"}, {"measurement": "Activity", "setting": "HCT-116 [15]", "value": "inactive"}, {"measurement": "Activity", "setting": "HCT-116 [16]", "value": "inactive"}, {"measurement": "Activity", "setting": "HCT-116 [17]", "value": "Active"}, {"measurement": "Activity", "setting": "HCT-116 [18]", "value": "Dose-dependent-effect"}, {"measurement": "Activity", "setting": "HCT-116 [19]", "value": "Active"}, {"measurement": "Activity", "setting": "HCT-116 [20]", "value": "Active"}, {"measurement": "Activity", "setting": "HCT-116 [21]", "value": "inactive"}, {"measurement": "Activity", "setting": "HCT-116 [22]", "value": 69.89, "unit": "%"}, {"measurement": "Activity", "setting": "HCT-116 [23]", "value": 10.2, "unit": "%"}, {"measurement": "Activity", "setting": "[24]", "value": 44.18, "unit": "%"}, {"measurement": "Activity", "setting": "[25]", "value": 43.13, "unit": "%"}, {"measurement": "Activity", "setting": "[26]", "value": 20.79, "unit": "%"}, {"measurement": "viability at 5 µM", "setting": "HCT-116 [27]", "value": 78.2, "unit": "%"}, {"measurement": "Activity", "setting": "HCT-116 [28]", "value": 19.39, "unit": "%"}, {"measurement": "Activity", "setting": "HCT-116 [29]", "value": 18.62, "unit": "%"}, {"measurement": "viability at 10 µM", "setting": "HCT-116 [30]", "value": 55.5, "unit": "%"}, {"measurement": "Activity", "setting": "HCT-116 [31]", "value": "Active"}, {"measurement": "Activity", "setting": "HCT-116 [32]", "value": "Active"}]}
